In ChEMBL document CHEMBL1201862, “PubChem BioAssay data set” (2004):
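Briefly, cells in 96-well plates were exposed to five compound concentrations for 48 h, and endpoints were estimated by linear interpolation. GI50 = concentration required for 50% inhibition of growth.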 Active and inactive are the calls of the source. Rule as the data show it: active = GI50 up to about 1.1 µM and inactive = higher.

What was measured:
Assay in all cases: inhibition of tumour cell growth, NCI panel, 48 h
NCI-H460 = system: NCI-H460
HL-60 = system: HL-60
HCC 2998 = system: HCC 2998
Malme-3M = system: Malme-3M
RXF 393 = system: RXF 393
SR = system: SR
UACC-62 = system: UACC-62
TK-10 = system: TK-10
HCT-116 = system: HCT-116
UO-31 = system: UO-31
CAKI-1 = system: CAKI-1
SK-MEL-28 = system: SK-MEL-28
U-251 = system: U-251
MCF7 = system: MCF7
SNB-19 = system: SNB-19
SF-295 = system: SF-295
SK-MEL-2 = system: SK-MEL-2
UACC-257 = system: UACC-257
K562 = system: K562
RPMI-8226 = system: RPMI-8226
NCI-H23 = system: NCI-H23
IGROV-1 = system: IGROV-1
HCT-15 = system: HCT-15
COLO 205 = system: COLO 205
SF-539 = system: SF-539
DU-145 = system: DU-145
HT-29 = system: HT-29
SF-268 = system: SF-268
PC-3 = system: PC-3
NCI-H226 = system: NCI-H226
OVCAR-5 = system: OVCAR-5
BT-549 = system: BT-549
HOP-92 = system: HOP-92
MDA-MB-435 = system: MDA-MB-435
SW-620 = system: SW-620
NCI/ADR-RES = system: NCI/ADR-RES
MDA-N = system: MDA-N
OVCAR-3 = system: OVCAR-3
SN12C = system: SN12C
T47D = system: T47D
NCI-H522 = system: NCI-H522
OVCAR-8 = system: OVCAR-8
OVCAR-4 = system: OVCAR-4
MDA-MB-231 = system: MDA-MB-231
ACHN = system: ACHN
M14 = system: M14
KM12 = system: KM12
SK-MEL-5 = system: SK-MEL-5
A498 = system: A498
SNB-75 = system: SNB-75
786-0 = system: 786-0
A549 = system: A549
MOLT-4 = system: MOLT-4
CCRF-CEM = system: CCRF-CEM
HOP-62 = system: HOP-62
SK-OV-3 = system: SK-OV-3
LOX IMVI = system: LOX IMVI
EKVX = system: EKVX
Hs-578T = system: Hs-578T

COc1ccc(NC2Oc3cc4c(cc3C(c3cc(OC)c(O)c(OC)c3)C2C)OCO4)cc1 (stereo not given)
GI50 (NCI-H460): 3.83 µM (inactive)
GI50 (HL-60): 1.79 µM (inactive)
GI50 (HCC 2998): 5.22 µM (inactive)
GI50 (Malme-3M): 5.38 µM (inactive)
GI50 (RXF 393): 7.73 µM (inactive)
GI50 (SR): 0.202 µM (active)
GI50 (UACC-62): 2.74 µM (inactive)
GI50 (TK-10): 2.23 µM (inactive)
GI50 (HCT-116): 4.43 µM (inactive)
GI50 (UO-31): 5.97 µM (inactive)
GI50 (CAKI-1): 10.4 µM (inactive)
GI50 (SK-MEL-28): 3.73 µM (inactive)
GI50 (U-251): 4.65 µM (inactive)
GI50 (MCF7): 5.71 µM (inactive)
GI50 (SNB-19): 21.4 µM (inactive)
GI50 (SF-295): 4.78 µM (inactive)
GI50 (SK-MEL-2): 2.25 µM (inactive)
GI50 (UACC-257): 15.1 µM (inactive)
GI50 (K562): 2.69 µM (inactive)
GI50 (RPMI-8226): 3.15 µM (inactive)
GI50 (NCI-H23): 11.2 µM (inactive)
GI50 (IGROV-1): 5.55 µM (inactive)
GI50 (HCT-15): 1.79 µM
GI50 (COLO 205): 8.87 µM (inactive)
GI50 (SF-539): 4.2 µM (inactive)
GI50 (DU-145): 7.4 µM (inactive)
GI50 (HT-29): 3.82 µM (inactive)
GI50 (SF-268): 14.7 µM (inactive)
GI50 (PC-3): 4.13 µM (inactive)
GI50 (NCI-H226): 38.3 µM (inactive)
GI50 (OVCAR-5): 7.66 µM (inactive)
GI50 (BT-549): 10.4 µM (inactive)
GI50 (HOP-92): 23.8 µM (inactive)
GI50 (MDA-MB-435): 0.406 µM (active)
GI50 (SW-620): 3.5 µM (inactive)
GI50 (NCI/ADR-RES): 5.66 µM (inactive)
GI50 (MDA-N): 1.36 µM (inactive)
GI50 (OVCAR-3): 5.21 µM (inactive)
GI50 (SN12C): 2.76 µM (inactive)
GI50 (T47D): 9.06 µM (inactive)
GI50 (NCI-H522): 3.33 µM (inactive)
GI50 (OVCAR-8): 4.45 µM (inactive)
GI50 (OVCAR-4): 48.2 µM (inactive)
GI50 (MDA-MB-231): 2.65 µM (inactive)
GI50 (ACHN): 4.01 µM (inactive)
GI50 (M14): 5.36 µM (inactive)
GI50 (KM12): 4.78 µM (inactive)
GI50 (SK-MEL-5): 1.96 µM (inactive)
GI50 (A498): 6.79 µM (inactive)
GI50 (SNB-75): 2.11 µM (inactive)
GI50 (786-0): 3.72 µM (inactive)
GI50 (A549): 3.56 µM (inactive)

NCCSc1nc2ccccc2c(=O)n1-c1ccccc1
GI50 (HL-60): 32.8 µM (inactive)
GI50 (HCC 2998): 44.3 µM (inactive)
GI50 (Malme-3M): 30.2 µM (inactive)
GI50 (MOLT-4): > 10 µM (inactive)
GI50 (SR): 11.9 µM (inactive)
GI50 (UACC-62): 26.4 µM (inactive)
GI50 (TK-10): 45.5 µM (inactive)
GI50 (HCT-116): 60.3 µM (inactive)
GI50 (UO-31): 24.4 µM (inactive)
GI50 (CAKI-1): 90.6 µM (inactive)
GI50 (SK-MEL-28): > 100 µM (inactive)
GI50 (U-251): 34.4 µM (inactive)
GI50 (CCRF-CEM): 45.7 µM (inactive)
GI50 (HOP-62): 61.7 µM (inactive)
GI50 (MCF7): 90.8 µM (inactive)
GI50 (SNB-19): 0.236 µM (active)
GI50 (SF-295): 28.2 µM (inactive)
GI50 (SK-MEL-2): 67 µM (inactive)
GI50 (UACC-257): 77.1 µM (inactive)
GI50 (K562): 39.9 µM (inactive)
GI50 (RPMI-8226): > 10 µM (inactive)
GI50 (NCI-H23): 50.2 µM (inactive)
GI50 (SK-OV-3): > 100 µM (inactive)
GI50 (IGROV-1): 44.7 µM (inactive)
GI50 (HCT-15): 43.8 µM
GI50 (COLO 205): > 100 µM (inactive)
GI50 (SF-539): 32.7 µM (inactive)
GI50 (HT-29): 49.7 µM (inactive)
GI50 (PC-3): 27.9 µM (inactive)
GI50 (NCI-H226): > 100 µM (inactive)
GI50 (OVCAR-5): > 100 µM (inactive)
GI50 (BT-549): 27.2 µM (inactive)
GI50 (HOP-92): 10.3 µM (inactive)
GI50 (MDA-MB-435): 23.9 µM (inactive)
GI50 (SW-620): 45.5 µM (inactive)
GI50 (NCI/ADR-RES): 68.9 µM (inactive)
GI50 (MDA-N): 42.9 µM (inactive)
GI50 (OVCAR-3): > 100 µM (inactive)
GI50 (SN12C): > 100 µM (inactive)
GI50 (T47D): 32.6 µM (inactive)
GI50 (NCI-H522): 30.8 µM (inactive)
GI50 (OVCAR-8): 56.6 µM (inactive)
GI50 (LOX IMVI): 71.9 µM (inactive)
GI50 (OVCAR-4): 52.8 µM (inactive)
GI50 (EKVX): > 100 µM (inactive)
GI50 (MDA-MB-231): > 100 µM (inactive)
GI50 (ACHN): 21.6 µM (inactive)
GI50 (M14): 53.8 µM (inactive)
GI50 (KM12): 41.7 µM (inactive)
GI50 (SK-MEL-5): 74.3 µM (inactive)
GI50 (A498): 26.5 µM (inactive)
GI50 (SNB-75): 33.9 µM (inactive)
GI50 (786-0): 51.1 µM (inactive)
GI50 (A549): 43.7 µM (inactive)

O=C1NC(=O)C(CC2CCCCCCCCCCC2=O)C(=O)N1 (stereo not given)
GI50 (NCI-H460): > 100 µM (inactive)
GI50 (HL-60): 4.94 µM (inactive)
GI50 (HCC 2998): > 100 µM (inactive)
GI50 (RXF 393): > 100 µM (inactive)
GI50 (MOLT-4): 39.6 µM (inactive)
GI50 (SR): 0.041 µM (active)
GI50 (UACC-62): > 100 µM (inactive)
GI50 (TK-10): > 100 µM (inactive)
GI50 (HCT-116): > 100 µM (inactive)
GI50 (UO-31): 74 µM (inactive)
GI50 (CAKI-1): > 100 µM (inactive)
GI50 (SK-MEL-28): > 100 µM (inactive)
GI50 (U-251): > 100 µM (inactive)
GI50 (CCRF-CEM): 1.2 µM (inactive)
GI50 (HOP-62): > 100 µM (inactive)
GI50 (MCF7): > 100 µM (inactive)
GI50 (SNB-19): > 100 µM (inactive)
GI50 (SF-295): > 100 µM (inactive)
GI50 (SK-MEL-2): > 100 µM (inactive)
GI50 (UACC-257): > 100 µM (inactive)
GI50 (NCI-H23): > 100 µM (inactive)
GI50 (SK-OV-3): > 100 µM (inactive)
GI50 (IGROV-1): > 100 µM (inactive)
GI50 (HCT-15): > 100 µM
GI50 (COLO 205): > 100 µM (inactive)
GI50 (SF-539): > 100 µM (inactive)
GI50 (DU-145): > 100 µM (inactive)
GI50 (HT-29): 74 µM (inactive)
GI50 (SF-268): > 100 µM (inactive)
GI50 (PC-3): > 100 µM (inactive)
GI50 (NCI-H226): > 100 µM (inactive)
GI50 (OVCAR-5): > 100 µM (inactive)
GI50 (BT-549): > 100 µM (inactive)
GI50 (HOP-92): > 100 µM (inactive)
GI50 (Hs-578T): > 100 µM (inactive)
GI50 (MDA-MB-435): > 100 µM (inactive)
GI50 (SW-620): > 100 µM (inactive)
GI50 (NCI/ADR-RES): > 100 µM (inactive)
GI50 (MDA-N): > 100 µM (inactive)
GI50 (OVCAR-3): > 100 µM (inactive)
GI50 (SN12C): > 100 µM (inactive)
GI50 (NCI-H522): > 100 µM (inactive)
GI50 (OVCAR-8): > 100 µM (inactive)
GI50 (LOX IMVI): > 100 µM (inactive)
GI50 (OVCAR-4): > 100 µM (inactive)
GI50 (EKVX): > 100 µM (inactive)
GI50 (MDA-MB-231): > 100 µM (inactive)
GI50 (ACHN): > 100 µM (inactive)
GI50 (M14): > 100 µM (inactive)
GI50 (KM12): > 100 µM (inactive)
GI50 (SK-MEL-5): > 100 µM (inactive)
GI50 (SNB-75): > 100 µM (inactive)
GI50 (786-0): > 100 µM (inactive)
GI50 (A549): > 100 µM (inactive)
